Data published in ChEMBL document CHEMBL5724914, “Linking interpersonal differences in gut microbiota composition and drug biotransformation activity” (2024).

conditions: human gut metagenome, 24 h, 2 µM
Also: call rule not given here.

| Compound | Bacterial Biotransformation |
| --- | --- |
| COc1ccc2[nH]c([S+]([O-])Cc3ncc(C)c(OC)c3C)nc2n1 (stereo not given) [TENATOPRAZOLE] | Compound NOT metabolized |
| OC(Cn1cncn1)(Cn1cncn1)c1ccc(F)cc1F [FLUCONAZOLE] | Compound metabolized |

test: (§1) The drug is tested on Z-001 corresponding to mouse gut metagenome with ENA study accession number: PRJEB37062 and ENA sample accession number: ERS12561801 for biotransformation under anaerobic condition. The drug concentrations were measured over 9 timepoints collected between 0 and 24 hours of incubation by liquid-chromatography-coupled mass spectrometry (LC–MS); conditions: 2 µM

| Compound | Bacterial Biotransformation |
| --- | --- |
| COc1ccc2[nH]c([S+]([O-])Cc3ncc(C)c(OC)c3C)nc2n1 (stereo not given) [TENATOPRAZOLE] | Compound metabolized |
| OC(Cn1cncn1)(Cn1cncn1)c1ccc(F)cc1F [FLUCONAZOLE] | Compound NOT metabolized |

conditions: human gut metagenome, 24 h, 2 µM; remark: another data set of the same source

| Compound | Bacterial Biotransformation |
| --- | --- |
| COc1ccc2[nH]c([S+]([O-])Cc3ncc(C)c(OC)c3C)nc2n1 (stereo not given) [TENATOPRAZOLE] | Compound NOT metabolized |
| OC(Cn1cncn1)(Cn1cncn1)c1ccc(F)cc1F [FLUCONAZOLE] | Compound metabolized |

conditions: human gut metagenome, 24 h, 2 µM; remark: another data set of the same source

| Compound | Bacterial Biotransformation |
| --- | --- |
| COc1ccc2[nH]c([S+]([O-])Cc3ncc(C)c(OC)c3C)nc2n1 (stereo not given) [TENATOPRAZOLE] | Compound metabolized |
| OC(Cn1cncn1)(Cn1cncn1)c1ccc(F)cc1F [FLUCONAZOLE] | Compound NOT metabolized |

conditions: human gut metagenome, 24 h, 2 µM; remark: another data set of the same source

| Compound | Bacterial Biotransformation |
| --- | --- |
| COc1ccc2[nH]c([S+]([O-])Cc3ncc(C)c(OC)c3C)nc2n1 (stereo not given) [TENATOPRAZOLE] | Compound metabolized |
| OC(Cn1cncn1)(Cn1cncn1)c1ccc(F)cc1F [FLUCONAZOLE] | Compound metabolized |

conditions: human gut metagenome, 24 h, 2 µM; remark: another data set of the same source

| Compound | Bacterial Biotransformation |
| --- | --- |
| COc1ccc2[nH]c([S+]([O-])Cc3ncc(C)c(OC)c3C)nc2n1 (stereo not given) [TENATOPRAZOLE] | Compound NOT metabolized |
| OC(Cn1cncn1)(Cn1cncn1)c1ccc(F)cc1F [FLUCONAZOLE] | Compound NOT metabolized |

conditions: human gut metagenome, 24 h, 2 µM; remark: another data set of the same source

| Compound | Bacterial Biotransformation |
| --- | --- |
| COc1ccc2[nH]c([S+]([O-])Cc3ncc(C)c(OC)c3C)nc2n1 (stereo not given) [TENATOPRAZOLE] | Compound metabolized |
| OC(Cn1cncn1)(Cn1cncn1)c1ccc(F)cc1F [FLUCONAZOLE] | Compound metabolized |

test: as §1, with “Z-028” for “Z-001”, “ERS12561827” for “ERS12561801”; conditions: 2 µM

| Compound | Bacterial Biotransformation |
| --- | --- |
| COc1ccc2[nH]c([S+]([O-])Cc3ncc(C)c(OC)c3C)nc2n1 (stereo not given) [TENATOPRAZOLE] | Compound metabolized |
| OC(Cn1cncn1)(Cn1cncn1)c1ccc(F)cc1F [FLUCONAZOLE] | Compound NOT metabolized |

test: as §1, with “Z-013” for “Z-001”, “rabbit” for “mouse”, “ERS12561813” for “ERS12561801”; conditions: 2 µM

| Compound | Bacterial Biotransformation |
| --- | --- |
| COc1ccc2[nH]c([S+]([O-])Cc3ncc(C)c(OC)c3C)nc2n1 (stereo not given) [TENATOPRAZOLE] | Compound metabolized |
| OC(Cn1cncn1)(Cn1cncn1)c1ccc(F)cc1F [FLUCONAZOLE] | Compound NOT metabolized |

test: as §1, with “Z-007” for “Z-001”, “rat” for “mouse”, “ERS12561807” for “ERS12561801”; conditions: 2 µM

| Compound | Bacterial Biotransformation |
| --- | --- |
| COc1ccc2[nH]c([S+]([O-])Cc3ncc(C)c(OC)c3C)nc2n1 (stereo not given) [TENATOPRAZOLE] | Compound metabolized |
| OC(Cn1cncn1)(Cn1cncn1)c1ccc(F)cc1F [FLUCONAZOLE] | Compound NOT metabolized |

test: as §1, with “Z-024” for “Z-001”, “pig” for “mouse”, “ERS12561823” for “ERS12561801”; conditions: 2 µM

| Compound | Bacterial Biotransformation |
| --- | --- |
| COc1ccc2[nH]c([S+]([O-])Cc3ncc(C)c(OC)c3C)nc2n1 (stereo not given) [TENATOPRAZOLE] | Compound NOT metabolized |
| OC(Cn1cncn1)(Cn1cncn1)c1ccc(F)cc1F [FLUCONAZOLE] | Compound metabolized |

conditions: human gut metagenome, 24 h, 2 µM; remark: another data set of the same source

| Compound | Bacterial Biotransformation |
| --- | --- |
| COc1ccc2[nH]c([S+]([O-])Cc3ncc(C)c(OC)c3C)nc2n1 (stereo not given) [TENATOPRAZOLE] | Compound NOT metabolized |
| OC(Cn1cncn1)(Cn1cncn1)c1ccc(F)cc1F [FLUCONAZOLE] | Compound metabolized |

test: as §1, with “Z-009” for “Z-001”, “pig” for “mouse”, “ERS12561809” for “ERS12561801”; conditions: 2 µM

| Compound | Bacterial Biotransformation |
| --- | --- |
| COc1ccc2[nH]c([S+]([O-])Cc3ncc(C)c(OC)c3C)nc2n1 (stereo not given) [TENATOPRAZOLE] | Compound metabolized |
| OC(Cn1cncn1)(Cn1cncn1)c1ccc(F)cc1F [FLUCONAZOLE] | Compound NOT metabolized |

test: as §1, with “WLS-082” for “Z-001”, “human” for “mouse”, “ERS12561751” for “ERS12561801”; conditions: 2 µM

| Compound | Bacterial Biotransformation |
| --- | --- |
| COc1ccc2[nH]c([S+]([O-])Cc3ncc(C)c(OC)c3C)nc2n1 (stereo not given) [TENATOPRAZOLE] | Compound metabolized |
| OC(Cn1cncn1)(Cn1cncn1)c1ccc(F)cc1F [FLUCONAZOLE] | Compound metabolized |

conditions: human gut metagenome, 24 h, 2 µM; remark: another data set of the same source

| Compound | Bacterial Biotransformation |
| --- | --- |
| COc1ccc2[nH]c([S+]([O-])Cc3ncc(C)c(OC)c3C)nc2n1 (stereo not given) [TENATOPRAZOLE] | Compound metabolized |
| OC(Cn1cncn1)(Cn1cncn1)c1ccc(F)cc1F [FLUCONAZOLE] | Compound metabolized |

conditions: human gut metagenome, 24 h, 2 µM; remark: another data set of the same source

| Compound | Bacterial Biotransformation |
| --- | --- |
| COc1ccc2[nH]c([S+]([O-])Cc3ncc(C)c(OC)c3C)nc2n1 (stereo not given) [TENATOPRAZOLE] | Compound metabolized |
| OC(Cn1cncn1)(Cn1cncn1)c1ccc(F)cc1F [FLUCONAZOLE] | Compound NOT metabolized |

test: as §1, with “WLS-006” for “Z-001”, “human” for “mouse”, “ERS12561741” for “ERS12561801”; conditions: 2 µM

| Compound | Bacterial Biotransformation |
| --- | --- |
| COc1ccc2[nH]c([S+]([O-])Cc3ncc(C)c(OC)c3C)nc2n1 (stereo not given) [TENATOPRAZOLE] | Compound metabolized |
| OC(Cn1cncn1)(Cn1cncn1)c1ccc(F)cc1F [FLUCONAZOLE] | Compound metabolized |

conditions: human gut metagenome, 24 h, 2 µM; remark: another data set of the same source

| Compound | Bacterial Biotransformation |
| --- | --- |
| COc1ccc2[nH]c([S+]([O-])Cc3ncc(C)c(OC)c3C)nc2n1 (stereo not given) [TENATOPRAZOLE] | Compound NOT metabolized |
| OC(Cn1cncn1)(Cn1cncn1)c1ccc(F)cc1F [FLUCONAZOLE] | Compound metabolized |

test: as §1, with “Z-020” for “Z-001”, “rabbit” for “mouse”, “ERS12561819” for “ERS12561801”; conditions: 2 µM

| Compound | Bacterial Biotransformation |
| --- | --- |
| COc1ccc2[nH]c([S+]([O-])Cc3ncc(C)c(OC)c3C)nc2n1 (stereo not given) [TENATOPRAZOLE] | Compound NOT metabolized |
| OC(Cn1cncn1)(Cn1cncn1)c1ccc(F)cc1F [FLUCONAZOLE] | Compound NOT metabolized |

test: as §1, with “Z-027” for “Z-001”, “to” for “to mouse gut”, “ERS12561826” for “ERS12561801”; conditions: 2 µM

| Compound | Bacterial Biotransformation |
| --- | --- |
| COc1ccc2[nH]c([S+]([O-])Cc3ncc(C)c(OC)c3C)nc2n1 (stereo not given) [TENATOPRAZOLE] | Compound metabolized |
| OC(Cn1cncn1)(Cn1cncn1)c1ccc(F)cc1F [FLUCONAZOLE] | Compound NOT metabolized |
